In the supplement of paper PMC9938120 one finds drug sensitivity score data, which are given here for twelve molecules.

Common to all, as to experiment: drug sensitivity score (DSS3, normalised partial AUC of % inhibition dose-response) (DSS (score)); higher = more sensitive (stronger inhibition of viability); extreme values may be limits of the assay
One assay has as its system FMOC24 (patient-derived high-grade serous ovarian cancer cells). The following applies: 72 h; library: FO5A; assay format: 2D, 384-well, CellTiter-Glo. The procedure, abridged:
(§1)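 Early-passage (under 10) patient-derived ovarian cancer cells were dispensed onto 384-well flat clear-bottom plates pre-plated with compounds at five concentrations spanning a 10,000-fold range, then incubated 72 h at 37 °C, 5% CO2. Viability was read with CellTiter-Glo, and the data were processed in Breeze. The drug sensitivity score is a partial area under the percent-inhibition dose-response curve divided by the log of the upper asymptote, with higher values meaning greater sensitivity.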
(Cellular ATP, detected with luciferase, serves as a proxy for viable cell number.)

Another assay has as its system FMOC22 (patient-derived mucinous ovarian cancer cells). The following applies: 72 h; library: FO5A; assay format: 2D, 384-well, CellTiter-Glo. An outline of the steps:
as §1

In a further assay the test system is FMOC14 (patient-derived high-grade serous ovarian cancer cells). The following applies: 72 h; library: FO5A; assay format: 2D, 384-well, CellTiter-Glo. An outline of the steps:
as §1

Another assay has as its system FMOC06 (patient-derived mucinous ovarian cancer cells). The following applies: 72 h; library: FO5A; assay format: 2D, 384-well, CellTiter-Glo. The procedure, abridged: as §1
A further assay has as its system FMOC02_2 (patient-derived low-grade serous ovarian cancer cells). The following applies: 72 h; library: FO5A; assay format: 2D, 384-well, CellTiter-Glo. An outline of the steps: as §1
The subject of a further assay is FMOC03 (patient-derived mucinous ovarian cancer cells). The following applies: 72 h; library: FO5A; assay format: 2D, 384-well, CellTiter-Glo. An outline of the steps: as §1
The subject of the next assay is FMOC02_3 (patient-derived low-grade serous ovarian cancer cells). To be noted: 72 h; library: FO5A; assay format: 2D, 384-well, CellTiter-Glo. An outline of the steps:
as §1

For another assay, the system named is FMOC25_1 (patient-derived low-grade serous ovarian cancer cells). The following applies: 72 h; library: FO4B; assay format: 2D, 384-well, CellTiter-Glo. The procedure, abridged:
as §1

In another assay the test system is FMOC09 (patient-derived high-grade serous ovarian cancer cells). The following applies: 72 h; library: FO5A; assay format: 2D, 384-well, CellTiter-Glo. An outline of the steps: as §1
The test system of a further assay is FMOC25_2 (patient-derived low-grade serous ovarian cancer cells). The following applies: 72 h; library: FO5A; assay format: 2D, 384-well, CellTiter-Glo. The procedure, abridged:
as §1

As to `CC(C)(C)C[C@@H]1N[C@@H](C(=O)N[C@H]2CC[C@H](O)CC2)[C@H](c2cccc(Cl)c2F)[C@]12C(=O)Nc1cc(Cl)ccc12`, the drug sensitivity score was 3.4 in the assay on FMOC24; 3.5 with FMOC22; 1.6 with FMOC14; 3.3 in the assay with FMOC06; 10.3 in the assay on FMOC02_2; 3.1 in the assay with FMOC03. The drug sensitivity score in the assay on FMOC02_3 is 17.9; with FMOC25_1 it was 9.9; in the assay with FMOC09, 1.6; in the assay on FMOC25_2, 8.4.

With `CC(C)Oc1ccc(C(=O)N[C@H](CNC(=O)CN(C)C)Cc2ccc(-c3cn4cccc([C@H](C)O)c4n3)cc2)cc1Cl`, the drug sensitivity score was found to be 4.8 in the assay on FMOC24; 5.7 in the assay on FMOC22; 3.5 with FMOC14; 2.7 in the assay with FMOC06; 3.8 with FMOC02_2; 5.5 in the assay on FMOC03. Besides, the drug sensitivity score was 11.9 in the assay with FMOC02_3, 3.3 with FMOC25_1, 7.3 in the assay on FMOC09 and 8.8 in the assay on FMOC25_2.

With `CCc1cncnc1N1CCN(Cc2nc3ccc(C(F)(F)F)cc3[nH]2)CC1`, the drug sensitivity score amounted to 5.2 with FMOC24; 1.3 with FMOC22; 1.3 in the assay on FMOC14; 0.5 in the assay on FMOC06; 3.9 in the assay with FMOC02_2; 0.8 in the assay on FMOC03. Besides, the drug sensitivity score turned out to be 5.3 with FMOC02_3, 1.3 in the assay with FMOC25_1, 0.1 in the assay on FMOC09 and 6.2 with FMOC25_2.

In the case of `CCn1c(-c2nonc2N)nc2c(C#CC(C)(C)O)ncc(OC[C@H]3CCCNC3)c21`, the drug sensitivity score in the assay on FMOC24 was 1.6; in the assay on FMOC22, 1.2; in the assay on FMOC14, 2.7; in the assay with FMOC06, 4.5; in the assay with FMOC02_2, 10.3; with FMOC03 it was 2. The drug sensitivity score in the assay with FMOC02_3 turned out to be 12.5; with FMOC25_1, 4.5; in the assay on FMOC09, 2.4; with FMOC25_2, 8.1.

In the case of `CCn1cc(-c2ccnc3[nH]c(-c4cccc(CN(C)C)c4)cc23)c(-c2ccc(NC(=O)N(C)C)cc2)n1`, the drug sensitivity score was 0.55 in the assay with FMOC24; 0.1 in the assay with FMOC22; 0 with FMOC14; 0 in the assay on FMOC06; 0 with FMOC02_2; 0 in the assay on FMOC03. The drug sensitivity score with FMOC02_3 was 2.6; in the assay on FMOC25_1, 0; in the assay with FMOC09, 0; in the assay with FMOC25_2, 2.2.

For the molecule `CNC(=O)c1ccccc1Nc1nc(Nc2ccc3c(c2OC)CCC[C@H](N2CCN(CCO)CC2)C3)ncc1Cl`, the drug sensitivity score in the assay on FMOC24 is 5.95; in the assay with FMOC22, 7.1; with FMOC14 it was 6; in the assay on FMOC06, 10.3; with FMOC02_2, 11.1; with FMOC03, 7.2. Further, the drug sensitivity score with FMOC02_3 turned out to be 11.7; with FMOC25_1, 9; with FMOC09 it was 8.3; with FMOC25_2 it was 10.3.

Consider `CNc1ncc2cc(-c3cc(NC(=O)NCCC(C)(C)C)c(F)cc3C)c(C)nc2n1`, for which the drug sensitivity score with FMOC24 is 1.7; in the assay with FMOC22 it was 9.3; with FMOC14 it was 1.3; in the assay on FMOC06, 11.8; in the assay with FMOC02_2 it was 12.5; with FMOC03, 12. Further, the drug sensitivity score in the assay with FMOC02_3 turned out to be 16.9; with FMOC25_1 it was 11.1; with FMOC09, 9.5; with FMOC25_2, 14.8.

Regarding `C[C@@H](Oc1cc(-n2cnc3ccc(CN4CCN(C)CC4)cc32)sc1C(N)=O)c1ccccc1C(F)(F)F`, the drug sensitivity score in the assay with FMOC24 was determined as 6.1; in the assay with FMOC22, 11.5; with FMOC14 it was 3.9; with FMOC06, 5.3; in the assay on FMOC02_2, 8.2; in the assay on FMOC03, 7.3. Further, the drug sensitivity score is 9.1 in the assay on FMOC02_3, 7.4 in the assay on FMOC25_1, 12.6 in the assay on FMOC09 and 11.9 in the assay on FMOC25_2.

Take `C[C@@]1(C(=O)Nc2ccc(F)nc2)CCCN1c1nc(Nc2cc(C3CC3)n[nH]2)c2cccn2n1`: the drug sensitivity score in the assay on FMOC24 was found to be 2.75; in the assay on FMOC22, 9.5; with FMOC14, 2.2; in the assay on FMOC06, 14.7; in the assay on FMOC02_2 it was 14.3; with FMOC03 it was 7. Moreover, the drug sensitivity score in the assay with FMOC02_3 stood at 18.9; with FMOC25_1, 9.2; in the assay with FMOC09 it was 14.7; with FMOC25_2, 14.6.

Turning to `Cc1nc(Nc2n[nH]c3c2CN(C(=O)N[C@H](CN(C)C)c2ccccc2)C3(C)C)c2sccc2n1`, the drug sensitivity score was found to be 8.1 in the assay on FMOC24; 10.5 in the assay on FMOC22; 6.5 with FMOC14; 13.7 with FMOC06; 12.8 with FMOC02_2; 10.6 in the assay on FMOC03. The drug sensitivity score in the assay with FMOC02_3 stood at 20.9; with FMOC25_1, 16.7; with FMOC09, 10.2; in the assay on FMOC25_2, 26.6.

For the molecule `Cc1nn(C)c(COc2ccc(N3CCN(S(=O)(=O)N(C)C)CC3)cc2)c1-c1cccc2c(CCCOc3cccc4ccccc34)c(C(=O)O)n(CCN3CCOCC3)c12`, the drug sensitivity score was 6.7 in the assay with FMOC24; 8.2 in the assay on FMOC22; 7.6 in the assay with FMOC14; 7 in the assay on FMOC06; 6 in the assay on FMOC02_2; 5.9 in the assay with FMOC03. Also, the drug sensitivity score in the assay with FMOC02_3 turned out to be 7.5; in the assay on FMOC25_1, 5.6; in the assay on FMOC09 it was 5.9; in the assay on FMOC25_2 it was 4.7.

Take `Cn1cc(C2=Nc3cc(NC(=O)C(N)C4CCCCC4)cc4c3C2=CNNC4=O)cn1` (stereo not given): the drug sensitivity score was determined as 10.1 in the assay on FMOC24; 8.3 in the assay with FMOC22; 6.8 in the assay on FMOC14; 3 in the assay on FMOC06; 7.3 in the assay on FMOC02_2; 4.3 in the assay with FMOC03. Besides, the drug sensitivity score in the assay with FMOC02_3 amounted to 9.9; in the assay with FMOC25_1, 11.7; in the assay with FMOC09, 7.6; in the assay with FMOC25_2 it was 10.9.
